We go through one molecule from patent US8338363B2, “Pharmaceutical compositions comprising casein derived peptides and methods of use thereof” (Mileutis Ltd., priority 2005, dated 2012).

This assay in a line: Welfare of cows induced to dry off (Example 6): udder pressure index, steps/lying ratio. The class given is in vivo, Holstein cows. The method, then:
20 Holstein cows toward the end of lactation (˜60 days) and producing 17-35 liters milk per day were entered to the study. Cows were paired according to lactation number, days in milk, days to parturition, teat-end integrity, milk yield, SCC per ml of milk per cow or quarter and number of quarters infected at day of drying-off (Table 13).
Quarter's milk SCC and bacterial isolation were tested a week apart for 3 times, before drying-off. One cow of each pair was then assigned to a subgroup randomly (by flipping a coin). Cows in subgroup 1 were treated after milking with casein hydrolyzate and with the broad range antibiotic Cefquinome, (75 mg per dose) (N+C), while the cows in subgroup 2 were treated with Cefquinome alone (75 mg per dose) (C). […]
Udder pressure index (UPI) was set as follows: 0, 1, 2 and 3, where 0 is no pressure, 1 is medium pressure, 2 is high pressure and 3 is extremely high pressure. Arbitrary UPI values were determined by assessing the udder pressure by pressing a finger into the tissue and assessing its resistant to pressure in two areas, the milk cistern and corpus ubeis, 10 cm above the teats. […]
Data were statistically analyzed using the fit model procedure for repeated measurements of JMP (Version 5, SAS Institute, Cary, N.C.); treatment was the between-subject factor and time was the within-subject factor. […]

As to `CO/N=C(\C(=O)N[C@@H]1C(=O)N2C(C(=O)[O-])=C(C[n+]3cccc4c3CCCC4)CS[C@H]12)c1csc(N)n1` [C, Cefquinome], the “Udder pressure index (UPI), single cow” value (day 4 after treatment, cow with milk yield over 30 liters per day at dry-off (FIG. 4)) is recorded as around 2. In addition, the “ratio between number of steps and duration of lying (RSL)” value (from the second day after treatment, 10 cows per group (FIG. 5)) was “unchanged”.
